ChEMBL document CHEMBL1201861, “Genomics of Drug Sensitity in Cancer screening data, Wellcome Trust Sanger Institute”

tested on: COR-L88; assay: cells; type: functional, cell-based, Homo sapiens; conditions: Homo sapiens, COR-L88;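 also: growth inhibition of COR-L88 cells, read out with a cell viability assay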
Description: SANGER: Inhibition of human COR-L88 cell growth in a cell viability assay.

Row | Compound | IC50
1 | CC(C)CCN1c2nc(Nc3cc(F)c(O)c(F)c3)ncc2N(C)C(=O)C1C (centres undefined) | > 5 µM

tested on: LU-134-A; assay: cells; type: functional, cell-based, Homo sapiens; conditions: Homo sapiens, LU-134-A
Description: SANGER: Inhibition of human LU-134-A cell growth in a cell viability assay.

Row | Compound | IC50
2 | CC(C)CCN1c2nc(Nc3cc(F)c(O)c(F)c3)ncc2N(C)C(=O)C1C (centres undefined) | 3.95 µM

tested on: A388; assay: cells; type: functional, cell-based, Homo sapiens; conditions: Homo sapiens, A388;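 also: growth inhibition of human A388 cells, read out with a cell viability assay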
Description: SANGER: Inhibition of human A388 cell growth in a cell viability assay.

Row | Compound | IC50
3 | CC(C)CCN1c2nc(Nc3cc(F)c(O)c(F)c3)ncc2N(C)C(=O)C1C (centres undefined) | > 5 µM

tested on: A4-Fuk; assay: cells; type: functional, cell-based, Homo sapiens; conditions: Homo sapiens, A4-Fuk;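 also: growth inhibition of A4-Fuk cells, read out by a cell viability assay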
Description: SANGER: Inhibition of human A4-Fuk cell growth in a cell viability assay.

Row | Compound | IC50
4 | CC(C)CCN1c2nc(Nc3cc(F)c(O)c(F)c3)ncc2N(C)C(=O)C1C (centres undefined) | > 5 µM

tested on: MMAC-SF; assay: cells; type: functional, cell-based, Homo sapiens; conditions: Homo sapiens, MMAC-SF;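 also: growth inhibition of human MMAC-SF cells, read out with a cell viability assay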
Description: SANGER: Inhibition of human MMAC-SF cell growth in a cell viability assay.

Row | Compound | IC50
5 | CC(C)CCN1c2nc(Nc3cc(F)c(O)c(F)c3)ncc2N(C)C(=O)C1C (centres undefined) | > 5 µM

tested on: MEG-01; assay: cells; type: functional, cell-based, Homo sapiens; conditions: Homo sapiens, MEG-01;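 also: growth inhibition of MEG-01 cells, read out by a cell viability assay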
Description: SANGER: Inhibition of human MEG-01 cell growth in a cell viability assay.

Row | Compound | IC50
6 | CC(C)CCN1c2nc(Nc3cc(F)c(O)c(F)c3)ncc2N(C)C(=O)C1C (centres undefined) | > 5 µM

tested on: NCI-H1838; assay: cells; type: functional, cell-based, Homo sapiens; conditions: Homo sapiens, NCI-H1838;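 also: growth inhibition of NCI-H1838 cells, determined with a cell viability readout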
Description: SANGER: Inhibition of human NCI-H1838 cell growth in a cell viability assay.

Row | Compound | IC50
7 | CC(C)CCN1c2nc(Nc3cc(F)c(O)c(F)c3)ncc2N(C)C(=O)C1C (centres undefined) | > 5 µM

tested on: HCE-4; assay: cells; type: functional, cell-based, Homo sapiens; conditions: Homo sapiens, HCE-4;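 also: cell viability assay measuring inhibition of growth in the human HCE-4 cell line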
Description: SANGER: Inhibition of human HCE-4 cell growth in a cell viability assay.

Row | Compound | IC50
8 | CC(C)CCN1c2nc(Nc3cc(F)c(O)c(F)c3)ncc2N(C)C(=O)C1C (centres undefined) | > 5 µM

tested on: EKVX; assay: cells; type: functional, cell-based, Homo sapiens; conditions: Homo sapiens, EKVX;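 also: growth inhibition of human EKVX cells, read out with a cell viability assay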
Description: SANGER: Inhibition of human EKVX cell growth in a cell viability assay.

Row | Compound | IC50
9 | CC(C)CCN1c2nc(Nc3cc(F)c(O)c(F)c3)ncc2N(C)C(=O)C1C (centres undefined) | > 5 µM

tested on: IST-MES1; assay: cells; type: functional, cell-based, Homo sapiens; conditions: Homo sapiens, IST-MES1;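 also: growth inhibition of IST-MES1 cells, measured with a cell viability assay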
Description: SANGER: Inhibition of human IST-MES1 cell growth in a cell viability assay.

Row | Compound | IC50
10 | CC(C)CCN1c2nc(Nc3cc(F)c(O)c(F)c3)ncc2N(C)C(=O)C1C (centres undefined) | > 5 µM

tested on: HCC1187; assay: cells; type: functional, cell-based, Homo sapiens; conditions: Homo sapiens, HCC1187;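 also: growth inhibition of HCC1187 cells, read out with a cell viability assay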
Description: SANGER: Inhibition of human HCC1187 cell growth in a cell viability assay.

Row | Compound | IC50
11 | CC(C)CCN1c2nc(Nc3cc(F)c(O)c(F)c3)ncc2N(C)C(=O)C1C (centres undefined) | > 5 µM

tested on: HD-MY-Z; assay: cells; type: functional, cell-based, Homo sapiens; conditions: Homo sapiens, HD-MY-Z;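 also: growth inhibition of HD-MY-Z cells, read out with a cell viability assay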
Description: SANGER: Inhibition of human HD-MY-Z cell growth in a cell viability assay.

Row | Compound | IC50
12 | CC(C)CCN1c2nc(Nc3cc(F)c(O)c(F)c3)ncc2N(C)C(=O)C1C (centres undefined) | 3.37 µM

tested on: OS-RC-2; assay: cells; type: functional, cell-based, Homo sapiens; conditions: Homo sapiens, OS-RC-2;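 also: growth inhibition of human OS-RC-2 cells, measured by a cell viability assay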
Description: SANGER: Inhibition of human OS-RC-2 cell growth in a cell viability assay.

Row | Compound | IC50
13 | CC(C)CCN1c2nc(Nc3cc(F)c(O)c(F)c3)ncc2N(C)C(=O)C1C (centres undefined) | > 5 µM

tested on: CW-2; assay: cells; type: functional, cell-based, Homo sapiens; conditions: Homo sapiens, CW-2;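 also: growth inhibition of CW-2 cells, read out by a cell viability assay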
Description: SANGER: Inhibition of human CW-2 cell growth in a cell viability assay.

Row | Compound | IC50
14 | CC(C)CCN1c2nc(Nc3cc(F)c(O)c(F)c3)ncc2N(C)C(=O)C1C (centres undefined) | > 5 µM

tested on: KM-H2; assay: cells; type: functional, cell-based, Homo sapiens; conditions: Homo sapiens, KM-H2;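 also: growth inhibition of KM-H2 cells, read out by a cell viability assay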
Description: SANGER: Inhibition of human KM-H2 cell growth in a cell viability assay.

Row | Compound | IC50
15 | CC(C)CCN1c2nc(Nc3cc(F)c(O)c(F)c3)ncc2N(C)C(=O)C1C (centres undefined) | > 5 µM

tested on: NCI-H209; assay: cells; type: functional, cell-based, Homo sapiens; conditions: Homo sapiens, NCI-H209;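 also: growth inhibition of human NCI-H209 cells, measured by a cell viability assay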
Description: SANGER: Inhibition of human NCI-H209 cell growth in a cell viability assay.

Row | Compound | IC50
16 | CC(C)CCN1c2nc(Nc3cc(F)c(O)c(F)c3)ncc2N(C)C(=O)C1C (centres undefined) | 0.768 µM

tested on: NCI-H1155; assay: cells; type: functional, cell-based, Homo sapiens; conditions: Homo sapiens, NCI-H1155;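 also: cell growth inhibition measured by a viability assay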
Description: SANGER: Inhibition of human NCI-H1155 cell growth in a cell viability assay.

Row | Compound | IC50
17 | CC(C)CCN1c2nc(Nc3cc(F)c(O)c(F)c3)ncc2N(C)C(=O)C1C (centres undefined) | > 5 µM

tested on: PSN1; assay: cells; type: functional, cell-based, Homo sapiens; conditions: Homo sapiens, PSN1;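 also: suppression of growth of human PSN1 cells, read out by a cell viability assay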
Description: SANGER: Inhibition of human PSN1 cell growth in a cell viability assay.

Row | Compound | IC50
18 | CC(C)CCN1c2nc(Nc3cc(F)c(O)c(F)c3)ncc2N(C)C(=O)C1C (centres undefined) | 3.06 µM

tested on: SF-539; assay: cells; type: functional, cell-based, Homo sapiens; conditions: Homo sapiens, SF-539;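 also: Read-out is a cell viability assay, with IC50 reflecting inhibition of cell growth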
Description: SANGER: Inhibition of human SF539 cell growth in a cell viability assay.

Row | Compound | IC50
19 | CC(C)CCN1c2nc(Nc3cc(F)c(O)c(F)c3)ncc2N(C)C(=O)C1C (centres undefined) | > 5 µM

tested on: COLO-320-HSR; assay: cells; type: functional, cell-based, Homo sapiens; conditions: Homo sapiens, COLO-320-HSR;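 also: growth inhibition of COLO-320-HSR cells, determined with a cell viability assay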
Description: SANGER: Inhibition of human COLO-320-HSR cell growth in a cell viability assay.

Row | Compound | IC50
20 | CC(C)CCN1c2nc(Nc3cc(F)c(O)c(F)c3)ncc2N(C)C(=O)C1C (centres undefined) | > 5 µM

tested on: SHP77; assay: cells; type: functional, cell-based, Homo sapiens, SHP-77; conditions: Homo sapiens, SHP77;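 also: growth inhibition of human SHP-77 cells measured by a cell viability assay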
Description: SANGER: Inhibition of human SHP-77 cell growth in a cell viability assay.

Row | Compound | IC50
21 | CC(C)CCN1c2nc(Nc3cc(F)c(O)c(F)c3)ncc2N(C)C(=O)C1C (centres undefined) | > 5 µM

tested on: HL-60; assay: cells; type: functional, cell-based, Homo sapiens; conditions: Homo sapiens, HL-60;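 also: growth inhibition of human HL-60 cells, read out with a cell viability assay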
Description: SANGER: Inhibition of human HL-60 cell growth in a cell viability assay.

Row | Compound | IC50
22 | CC(C)CCN1c2nc(Nc3cc(F)c(O)c(F)c3)ncc2N(C)C(=O)C1C (centres undefined) | 0.884 µM

tested on: NCI-H23; assay: cells; type: functional, cell-based, Homo sapiens; conditions: Homo sapiens, NCI-H23;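 also: cell viability assay measuring growth inhibition of NCI-H23 cells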
Description: SANGER: Inhibition of human NCI-H23 cell growth in a cell viability assay.

Row | Compound | IC50
23 | CC(C)CCN1c2nc(Nc3cc(F)c(O)c(F)c3)ncc2N(C)C(=O)C1C (centres undefined) | > 5 µM

tested on: KE-37; assay: cells; type: functional, cell-based, Homo sapiens; conditions: Homo sapiens, KE-37;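 also: growth inhibition of KE-37 cells, read out with a cell viability assay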
Description: SANGER: Inhibition of human KE-37 cell growth in a cell viability assay.

Row | Compound | IC50
24 | CC(C)CCN1c2nc(Nc3cc(F)c(O)c(F)c3)ncc2N(C)C(=O)C1C (centres undefined) | 1.59 µM

tested on: SW 954; assay: cells; type: functional, cell-based, Homo sapiens; conditions: Homo sapiens, SW 954;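 also: growth inhibition of SW954 human cancer cells, read out as cell viability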
Description: SANGER: Inhibition of human SW954 cell growth in a cell viability assay.

Row | Compound | IC50
25 | CC(C)CCN1c2nc(Nc3cc(F)c(O)c(F)c3)ncc2N(C)C(=O)C1C (centres undefined) | 2.86 µM

tested on: LB373-MEL-D; assay: cells; type: functional, cell-based, Homo sapiens; conditions: Homo sapiens, LB373-MEL-D;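 also: growth inhibition of the cell line, read out in a cell viability assay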
Description: SANGER: Inhibition of human LB373-MEL-D cell growth in a cell viability assay.

Row | Compound | IC50
26 | CC(C)CCN1c2nc(Nc3cc(F)c(O)c(F)c3)ncc2N(C)C(=O)C1C (centres undefined) | > 5 µM

tested on: LB2241-RCC; assay: cells; type: functional, cell-based, Homo sapiens; conditions: Homo sapiens, LB2241-RCC;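 also: cell viability assay measuring how strongly the cultured human renal carcinoma line is prevented from growing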
Description: SANGER: Inhibition of human LB2241-RCC cell growth in a cell viability assay.

Row | Compound | IC50
27 | CC(C)CCN1c2nc(Nc3cc(F)c(O)c(F)c3)ncc2N(C)C(=O)C1C (centres undefined) | 3.69 µM

tested on: KURAMOCHI; assay: cells; type: functional, cell-based, Homo sapiens; conditions: Homo sapiens, KURAMOCHI;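 also: growth inhibition of KURAMOCHI cells, read out with a cell viability assay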
Description: SANGER: Inhibition of human KURAMOCHI cell growth in a cell viability assay.

Row | Compound | IC50
28 | CC(C)CCN1c2nc(Nc3cc(F)c(O)c(F)c3)ncc2N(C)C(=O)C1C (centres undefined) | > 5 µM

tested on: KINGS-1; assay: cells; type: functional, cell-based, Homo sapiens; conditions: Homo sapiens, KINGS-1;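 also: cell viability assay measuring suppression of KINGS-1 cell growth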
Description: SANGER: Inhibition of human KINGS-1 cell growth in a cell viability assay.

Row | Compound | IC50
29 | CC(C)CCN1c2nc(Nc3cc(F)c(O)c(F)c3)ncc2N(C)C(=O)C1C (centres undefined) | > 5 µM

tested on: GI-1; assay: cells; type: functional, cell-based, Homo sapiens; conditions: Homo sapiens, GI-1;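 also: growth inhibition of human GI-1 cells, measured with a cell viability readout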
Description: SANGER: Inhibition of human GI-1 cell growth in a cell viability assay.

Row | Compound | IC50
30 | CC(C)CCN1c2nc(Nc3cc(F)c(O)c(F)c3)ncc2N(C)C(=O)C1C (centres undefined) | 3.15 µM

tested on: RKO; assay: cells; type: functional, cell-based, Homo sapiens; conditions: Homo sapiens, RKO;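 also: growth inhibition of human RKO cells, read out with a cell viability assay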
Description: SANGER: Inhibition of human RKO cell growth in a cell viability assay.

Row | Compound | IC50
31 | CC(C)CCN1c2nc(Nc3cc(F)c(O)c(F)c3)ncc2N(C)C(=O)C1C (centres undefined) | 4.73 µM

tested on: KG-1; assay: cells; type: functional, cell-based, Homo sapiens; conditions: Homo sapiens, KG-1;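 also: growth inhibition of KG-1 cells, read out by a cell viability assay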
Description: SANGER: Inhibition of human KG-1 cell growth in a cell viability assay.

Row | Compound | IC50
32 | CC(C)CCN1c2nc(Nc3cc(F)c(O)c(F)c3)ncc2N(C)C(=O)C1C (centres undefined) | 3.61 µM

tested on: MC116; assay: cells; type: functional, cell-based, Homo sapiens; conditions: Homo sapiens, MC116;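 also: growth inhibition of MC116 cells, read out with a cell viability assay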
Description: SANGER: Inhibition of human MC116 cell growth in a cell viability assay.

Row | Compound | IC50
33 | CC(C)CCN1c2nc(Nc3cc(F)c(O)c(F)c3)ncc2N(C)C(=O)C1C (centres undefined) | > 5 µM

tested on: MLMA; assay: cells; type: functional, cell-based, Homo sapiens; conditions: Homo sapiens, MLMA;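 also: growth inhibition of MLMA cells (human), determined through a cell viability readout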
Description: SANGER: Inhibition of human MLMA cell growth in a cell viability assay.

Row | Compound | IC50
34 | CC(C)CCN1c2nc(Nc3cc(F)c(O)c(F)c3)ncc2N(C)C(=O)C1C (centres undefined) | > 5 µM

tested on: NCI-H1770; assay: cells; type: functional, cell-based, Homo sapiens; conditions: Homo sapiens, NCI-H1770;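 also: growth inhibition of NCI-H1770 cells determined with a viability readout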
Description: SANGER: Inhibition of human NCI-H1770 cell growth in a cell viability assay.

Row | Compound | IC50
35 | CC(C)CCN1c2nc(Nc3cc(F)c(O)c(F)c3)ncc2N(C)C(=O)C1C (centres undefined) | > 5 µM

tested on: Mo; assay: cells; type: functional, cell-based, Homo sapiens; conditions: Homo sapiens, Mo
Description: SANGER: Inhibition of human Mo-T cell growth in a cell viability assay.

Row | Compound | IC50
36 | CC(C)CCN1c2nc(Nc3cc(F)c(O)c(F)c3)ncc2N(C)C(=O)C1C (centres undefined) | > 5 µM

tested on: MOLT-4; assay: cells; type: functional, cell-based, Homo sapiens; conditions: Homo sapiens, MOLT-4;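 also: growth inhibition of MOLT-4 cells, determined with a cell viability readout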
Description: SANGER: Inhibition of human MOLT-4 cell growth in a cell viability assay.

Row | Compound | IC50
37 | CC(C)CCN1c2nc(Nc3cc(F)c(O)c(F)c3)ncc2N(C)C(=O)C1C (centres undefined) | 3.39 µM

tested on: K562; assay: cells; type: functional, cell-based, Homo sapiens; conditions: Homo sapiens, K562
Description: SANGER: Inhibition of human K-562 cell growth in a cell viability assay.

Row | Compound | IC50
38 | CC(C)CCN1c2nc(Nc3cc(F)c(O)c(F)c3)ncc2N(C)C(=O)C1C (centres undefined) | > 5 µM

tested on: EW-16; assay: cells; type: functional, cell-based, Homo sapiens; conditions: Homo sapiens, EW-16;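 also: growth inhibition of human EW-16 cells, read out as cell viability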
Description: SANGER: Inhibition of human EW-16 cell growth in a cell viability assay.

Row | Compound | IC50
39 | CC(C)CCN1c2nc(Nc3cc(F)c(O)c(F)c3)ncc2N(C)C(=O)C1C (centres undefined) | > 5 µM

tested on: DJM-1; assay: cells; type: functional, cell-based, Homo sapiens; conditions: Homo sapiens, DJM-1;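 also: growth inhibition of human DJM-1 cells, read out by a cell viability assay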
Description: SANGER: Inhibition of human DJM-1 cell growth in a cell viability assay.

Row | Compound | IC50
40 | CC(C)CCN1c2nc(Nc3cc(F)c(O)c(F)c3)ncc2N(C)C(=O)C1C (centres undefined) | 4.8 µM

tested on: NOS-1; assay: cells; type: functional, cell-based, Homo sapiens; conditions: Homo sapiens, NOS-1;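 also: growth inhibition of the human NOS-1 cell line, read out with a cell viability assay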
Description: SANGER: Inhibition of human NOS-1 cell growth in a cell viability assay.

Row | Compound | IC50
41 | CC(C)CCN1c2nc(Nc3cc(F)c(O)c(F)c3)ncc2N(C)C(=O)C1C (centres undefined) | > 5 µM

tested on: LU-139; assay: cells; type: functional, cell-based, Homo sapiens; conditions: Homo sapiens, LU-139
Description: SANGER: Inhibition of human LU-139 cell growth in a cell viability assay.

Row | Compound | IC50
42 | CC(C)CCN1c2nc(Nc3cc(F)c(O)c(F)c3)ncc2N(C)C(=O)C1C (centres undefined) | 0.85 µM

tested on: RCC10RGB; assay: cells; type: functional, cell-based, Homo sapiens; conditions: Homo sapiens, RCC10RGB;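 also: growth inhibition of human RCC10RGB cells, read out by a cell viability assay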
Description: SANGER: Inhibition of human RCC10RGB cell growth in a cell viability assay.

Row | Compound | IC50
43 | CC(C)CCN1c2nc(Nc3cc(F)c(O)c(F)c3)ncc2N(C)C(=O)C1C (centres undefined) | > 5 µM

tested on: KS-1; assay: cells; type: functional, cell-based, Homo sapiens; conditions: Homo sapiens, KS-1;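 also: growth inhibition of KS-1 cells, read out with a cell viability assay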
Description: SANGER: Inhibition of human KS-1 cell growth in a cell viability assay.

Row | Compound | IC50
44 | CC(C)CCN1c2nc(Nc3cc(F)c(O)c(F)c3)ncc2N(C)C(=O)C1C (centres undefined) | > 5 µM

tested on: ES5; assay: cells; type: functional, cell-based, Homo sapiens; conditions: Homo sapiens, ES5;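 also: growth inhibition of human ES5 cells, read out by a cell viability assay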
Description: SANGER: Inhibition of human ES5 cell growth in a cell viability assay.

Row | Compound | IC50
45 | CC(C)CCN1c2nc(Nc3cc(F)c(O)c(F)c3)ncc2N(C)C(=O)C1C (centres undefined) | 2.24 µM

tested on: ES8; assay: cells; type: functional, cell-based, Homo sapiens; conditions: Homo sapiens, ES8;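 also: growth inhibition of human ES8 cells, read out with a cell viability assay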
Description: SANGER: Inhibition of human ES8 cell growth in a cell viability assay.

Row | Compound | IC50
46 | CC(C)CCN1c2nc(Nc3cc(F)c(O)c(F)c3)ncc2N(C)C(=O)C1C (centres undefined) | 1.88 µM

tested on: no-10; assay: cells; type: functional, cell-based, Homo sapiens; conditions: Homo sapiens;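 also: growth inhibition of no-10 cells, read out with a cell viability assay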
Description: SANGER: Inhibition of human no-10 cell growth in a cell viability assay.

Row | Compound | IC50
47 | CC(C)CCN1c2nc(Nc3cc(F)c(O)c(F)c3)ncc2N(C)C(=O)C1C (centres undefined) | > 5 µM

tested on: TK-10; assay: cells; type: functional, cell-based, Homo sapiens; conditions: Homo sapiens, TK-10;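 also: growth inhibition of TK-10 cells, read out in a cell viability assay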
Description: SANGER: Inhibition of human TK10 cell growth in a cell viability assay.

Row | Compound | IC50
48 | CC(C)CCN1c2nc(Nc3cc(F)c(O)c(F)c3)ncc2N(C)C(=O)C1C (centres undefined) | > 5 µM

tested on: NTERA-2-cl-D1; assay: cells; type: functional, cell-based, Homo sapiens; conditions: Homo sapiens, NTERA-2-cl-D1;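 also: inhibition of cell growth, measured with a cell viability assay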
Description: SANGER: Inhibition of human NTERA-S-cl-D1 cell growth in a cell viability assay.

Row | Compound | IC50
49 | CC(C)CCN1c2nc(Nc3cc(F)c(O)c(F)c3)ncc2N(C)C(=O)C1C (centres undefined) | > 5 µM
